Assay results published in patent US20240408143A1, “METHODS FOR CULTURING MESENCHYMAL STEM CELLS, COMPOSITIONS AND IMPLEMENTATIONS THEREOF” (Pandorum Technologies Private Limited, priority 2021, published 2024).
Structures can show the parent of a compound that is named as a salt.

Columns and labels:
hBM-MSCs [1] = experiment: Yield of exosomes from primed hBM-MSCs; format: cell-based, human; conditions: priming of hBM-MSCs, compared to untreated (naïve) and other priming agents
Experimental: hBM-MSC was cultured in xeno-free media recommended by the manufacturer, hBM-MSC cells were grown to reach confluency of (80-90) % and treated with a Nrf2 activator (DMF-100 μM) for 24 hours before shifting and maintaining the cells in EV collect media for 24-72 hours (see example 3.3). After 72 hours, condition media was collected, and exosome isolation was performed using iodixanol density gradient protocol (as described in example 4.4).

hBM-MSCs [2] = experiment: Secretome analysis of primed hBM-MSCs by ELISA; format: cell-based, human; conditions: vs control/untreated
Experimental: hBM-MSCs were cultured in xeno free media along with a replacement of 10% and 20% of CSSC-derived conditioned media (CSSC-CM) to reach a confluence of 80-90%. The media was then subsequently shifted to EV collect for 24-72 hours and primed conditioned media was collected (as described in example 1.1, and 1.2), and exosome isolation was performed by iodixanol density gradient method (as described in example 4.4) and enriched exosomes were obtained. Homogenous fraction F9 was considered for further functional analysis. The secretome analysis was performed using ELISA, detecting the levels of HGF, VEGF, sFLT1, IL-6, NGF.
hBM-MSCs were primed with various priming agents (small molecules) and the secretome was collected (see example 3.2-3.6). The secretome analysis was performed using ELISA, and the levels of HGF, VEGF, NGF, IL-6, sFLT1, SDF1 were detected. FIGS. 6A-6F depict bar graphs of the quantification of the secreted protein levels of HGF, VEGF, NGF, IL-6, sFLT1, and SDF-1 from hBM-MSCs primed with curcumin, 4-OI, DMF, or the combination of curcumin conditioned media and DMF.

[3] = test system: NASH-induced liver spheroids; experiment: Treatment of NASH-induced human liver spheroids, marker staining and albumin ELISA; format: cell-based; conditions: treatment at D17-D19 after NASH induction, ELISA at 24, 48, 72 hours; HGF 40 ng/ml
Experimental: The protocol for generating human liver spheroids and inducing a NASH phenotype in the human liver spheroids for the present study was as follows: A mix of primary hepatocytes and liver stellate cells from human donors were co-cultured at a 70:30 ratio (70 hepatocytes to 30 liver stellate cells). The cell mixture was seeded on ultra-low attachment plates and cultured to form viable liver spheroids. […] The NASH induction protocol was as follows: On day 7 post seeding, the spheroids were treated with 600 μM free fatty acid (FFA) mixture consisting of Oleic acid and Palmitic acid at a weight ratio of 2:1 for 6 days with media change every other day. After 6 days of FFA treatment (13 days post seeding), 20 ng/mL of TGF β1 was added to the FFA-containing media for a further two days of combined FFA and TGFβ1 treatment. At day 15 post seeding (after 8 days of FFA treatment and 2 days of combined FFA and TGFβ1 treatment), the media was changed to TGF β1-only treatment, with 20 ng/mL TGF β1 and without the FFA mix. […], at day 19 post seeding, the spheroids and the conditioned media were harvested for characterization. […]
Secreted albumin levels is another marker of liver health. […] The secreted albumin in the culture medium was quantified based on ELISA measurements. […]

[4] = test system: NASH-induced liver spheroids; experiment: Microarray gene expression profiling of NASH-induced human liver spheroids; format: cell-based
Excerpt: As described herein above and shown in FIGS. 15A-15F, the effect on the liver spheroids of treatment with disease-state induction agents such the FFA mixture or TGFβ1 and/or with therapeutic agents such as the exosomes can be assayed one marker (or a new markers) at a time with techniques such as immune-staining and ELISA. However, a much larger count (dozens, hundreds, thousands) of markers may be assay simultaneously using high-throughput techniques, such as microarray or next generation sequencing (NGS). FIG. 16A depicts a heatmap of changes in gene expression of liver spheroids based on microarray hybridization data. Microarray hybridization data was acquired as follows: After growth of liver spheroid samples and treatment with NASH-induction agents and/or with therapeutic agents as describe above, the liver spheroids were isolated, lysed, and mRNA was isolated, then converted to sequences of complementary DNA (cDNA). The cDNA samples were then applied to an Agilent® microarray and read with a microarray reader. The microarray analysis was performed for a predetermined transcriptome set of 22,473 genes (included in the microarray) using standard methods to obtain normalized expression values. […]
The gene expression levels of the liver spheroids in each of the different liver spheroid states were also represented and stored, respectively, as feature vectors (“spheroid state feature vectors”), with each element of a given spheroid state feature vector being a level of expression of one of the genes assayed in the microarray. The similarity (or lack of similarity) of the gene expression profile between different states was determined based on a measure of distance between pairs of feature vectors in an n-dimensional space, n being the number of genes represented in each of the feature vectors. […]

MSCs [5] = experiment: Quantitative real time-PCR of MSCs treated with ATRA; format: cell-based; conditions: 1, 10, 100 μmol/L
Experimental: (§1) ATRA is found to increase the viability of MSCs. This was ascertained as the MSCs were treated with various concentrations of ATRA (0.1 μM to 500 μM) for 24 and 48 hours and their viability were examined by MTT assay. […] ATRA elevated the PGE2 levels. […] ATRA increased the expression of genes involved in MSC survival, migration and angiogenesis.

MSCs [6] = experiment: PGE2 levels in MSCs pre-treated with ATRA; format: cell-based; conditions: 1, 10, 100 μmol/L, dose-dependent
Experimental: as §1

MSCs [7] = experiment: MSC viability by MTT assay after ATRA treatment; format: cell-based; conditions: 0.1 μM to 500 μM for 24 and 48 hours; all treated MSCs except 0.1 μmol/L
Experimental: as §1

Compound | yield of exosomes (hBM-MSCs [1]) | secreted HGF level (hBM-MSCs [2]) | secreted IL-6 level (hBM-MSCs [2]) | secreted NGF level (hBM-MSCs [2]) | further results
COC(=O)/C=C/C(=O)OC [DMF, Dimethyl fumarate] | higher yield | significant increase | attenuated | increase | secreted SDF-1 level (hBM-MSCs [2]): increase; secreted sFLT1 level (hBM-MSCs [2]): increase
COc1cc(/C=C/C(=O)CC(=O)/C=C/c2ccc(O)c(OC)c2)ccc1O [curcumin, Curcumin] | – | – | attenuated | – | –
HGF: 40 ng/ml hepatic growth factor used as comparison treatment of NASH-induced liver spheroids | – | – | – | – | albumin secretion [3]: did not result in increased; recovery based on gene expression patterns, Jaccard Similarity Index coordinates ([4]; FIGS. 18A-18C gene sets): substantially more similar to the diseased state; gene expression profile of 287 liver specific genes, cluster analysis ([4]; treatment after NASH induction): most closely resembled the gene expression profile of the Diseased liver spheroid state; gene expression profile, principal component analysis ([4]; treatment at D17-D19 after NASH induction, HGF 40 ng/ml): substantially unchanged
C=C(CC(=O)OCCCCCCCC)C(=O)O [4-OI, 4 Octyl itaconate] | higher yield | significant increase | attenuated | enhanced | –
CC1=C(/C=C/C(C)=C/C=C/C(C)=C/C(=O)O)C(C)(C)CCC1 [ATRA, all-trans retinoic acid] | – | – | – | – | mRNA levels of COX-2, HIF-1, CXCR4, CCR2, VEGF, Ang-2 and Ang-4 (MSCs [5]): elevated in a dose dependent manner; PGE2 levels (MSCs [6]): significantly increased; MSC viability (MSCs [7]): significantly higher
